Data taken from PubChem BioAssay (NCI).
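Grown in 96-well plates, cells were treated for 48 hours with each compound at five concentrations. Insufficient inhibition: endpoint recorded as highest concentration tested. The concentration for 50% growth inhibition is given as GI50. The concentration for full growth arrest is given as TGI.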

Assays:
Assay in all cases: growth of human tumour cells (NCI), 48 h
A498 renal = test system: A498 renal
COLO 205 colon = test system: COLO 205 colon
HL-60(TB) leukemia = test system: HL-60(TB) leukemia
SW-620 colon = test system: SW-620 colon
UACC-257 melanoma = test system: UACC-257 melanoma
MDA-MB-435 = test system: MDA-MB-435
NCI/ADR-RES ovarian = test system: NCI/ADR-RES ovarian
OVCAR-4 ovarian = test system: OVCAR-4 ovarian

Row | Compound | GI50 (A498 renal) | TGI (A498 renal) | GI50 (COLO 205 colon) | TGI (COLO 205 colon) | GI50 (HL-60(TB) leukemia) | TGI (HL-60(TB) leukemia) | GI50 (SW-620 colon) | TGI (SW-620 colon) | GI50 (UACC-257 melanoma) | TGI (UACC-257 melanoma) | GI50 (MDA-MB-435) | TGI (MDA-MB-435) | GI50 (NCI/ADR-RES ovarian) | TGI (NCI/ADR-RES ovarian) | GI50 (OVCAR-4 ovarian) | TGI (OVCAR-4 ovarian)
1 | CC(=O)[CH-]C(=O)c1ccccc1.CC(=O)[CH-]C(=O)c1ccccc1.CN(C)c1ccc([O-])cc1.CN(C)c1ccc([O-])cc1.Cl.[Ti+4] | 31.1 µM | > 100 µM | 14.9 µM | 22.5 µM | 20.9 µM | > 31.6 µM | 18.5 µM | > 31.6 µM | > 31.6 µM | > 31.6 µM |  |  |  |  |  | 
2 | Cc1cc(-c2nc(C(=O)Nc3cc4oc(N5CCOCC5)nc4nc3N3CC[C@@H](O)C3)co2)ccn1 | 1.34 µM | 39.2 µM | 37.2 µM | > 100 µM | 35.2 µM | > 100 µM | 28.4 µM | > 100 µM | 88.8 µM | > 100 µM | 40.7 µM | > 100 µM | > 100 µM | > 100 µM | 32.1 µM | > 100 µM
3 | Cn1cc(C2=C(c3c4n(c5ccccc35)CCCCC4)C(=O)NC2=O)c2ccccc21 | 1.05 µM | 19.4 µM | 4.56 µM | > 18.8 µM | 1.39 µM | 16.2 µM | 2.19 µM | > 25 µM | > 25 µM | > 25 µM | 0.7 µM | 3.01 µM | 2.17 µM | > 25 µM | 7.32 µM | > 25 µM
4 | COc1cccc(-c2cc(-c3cccc(NS(C)(=O)=O)c3)nc(N)c2C#N)c1O | 0.0999 µM | 35 µM | 0.128 µM | 1.91 µM | 0.0861 µM | 2.77 µM | 0.0904 µM | > 100 µM | 0.471 µM | > 100 µM | 0.0275 µM | 0.151 µM | 0.154 µM | 2.34 µM | 0.61 µM | > 100 µM
5 | CCN(CC)N=Nc1c(C(N)=O)n[nH]c1C |  | > 100 µM |  | > 100 µM |  |  |  | > 100 µM |  | > 100 µM |  | > 100 µM |  | > 100 µM |  | > 100 µM
6 | COc1cc2c(c(OC)c1OC)-c1ccc(NNC(N)=S)c(=O)cc1[C@@H](NC(C)=O)CC2 | 0.93 µM | > 21.1 µM | 0.244 µM | 0.529 µM | 0.226 µM |  | 0.365 µM | > 100 µM |  | > 100 µM | 0.255 µM |  | 19.4 µM | > 100 µM | 0.625 µM | > 100 µM
7 | C=CCOc1ccc2c(C)cc(=O)oc2c1C |  | > 100 µM |  | > 100 µM |  | > 100 µM |  | > 100 µM |  | > 100 µM |  | > 100 µM |  | > 100 µM |  | > 100 µM
8 | COC(=O)CC[N+]1=CCC(c2ccccc2)(c2ccccc2)O1 |  | > 100 µM |  | > 100 µM |  |  |  | > 100 µM |  | > 100 µM |  | > 100 µM |  |  |  | > 100 µM
9 | COC1/C=C/OC2(C)Oc3c(C)c(O)c4c(O)c(c(/C=N/Nc5ccc([N+](=O)[O-])cc5[N+](=O)[O-])c(O)c4c3C2=O)NC(=O)C(C)=C/C=C/C(C)C(O)C(C)C(O)C(C)C(OC(C)=O)C1C (centres undefined) | 6.87 µM | 14 µM | 2.8 µM | 10.5 µM |  |  | 1.19 µM | 2.96 µM | 1.48 µM | 5.58 µM | 1.28 µM | 3.72 µM | 22.2 µM | > 50 µM | 2.9 µM | > 50 µM
10 | CCOC1Oc2ccccc2C(=O)/C1=C/Nc1ccc(C(C)=O)cc1 (centres undefined) |  |  | 55.2 µM | > 100 µM |  |  | 26.7 µM | 72.6 µM | 19.7 µM | 46.9 µM | 24.3 µM | 61.9 µM | 15.6 µM | 38.6 µM | 49 µM | > 100 µM
11 | COC(=O)/C=C1\S/C(=N\NC(=O)c2cc3ccc2/C=C\c2ccc(cc2)/C=C\3)N(c2ccccc2)C1=O |  |  |  |  | 2.7 µM | > 100 µM | 1.85 µM | 3.66 µM | 5.14 µM | > 100 µM | 5.44 µM | > 100 µM | 2.92 µM | 10.6 µM | 3.17 µM | 9.88 µM
12 | COc1ccc2c(c1)sc1nc(-c3ccccc3)c(-c3cccc4ccccc34)n12 | 0.601 µM | > 30 µM | 0.292 µM | 0.855 µM | 0.148 µM |  | 0.346 µM | > 100 µM | 0.532 µM | > 100 µM |  |  | 0.47 µM | > 100 µM | 2.87 µM | > 100 µM
13 | OCCN(CCO)c1ncnc2c1ncn2Cc1ccc(CCl)cc1 | 14.2 µM | 28.1 µM | 18.2 µM | 46.8 µM |  |  | 10.8 µM | 27.3 µM | 13.8 µM | 28.9 µM | 14.5 µM | 29.3 µM | 24.7 µM | 74.1 µM | 18.8 µM | 35.4 µM
14 | CC(=O)OC1OC([C@@H]2c3cccc(O)c3C(=O)c3c(O)cc(C)cc32)C(O)C(O)C1O (some centres undefined) | 0.0444 µM | 0.358 µM | 0.0429 µM | 2.68 µM | 0.0173 µM | 0.0493 µM | 0.0231 µM | 1.73 µM | 0.0951 µM | 1.33 µM | < 0.0185 µM | 0.691 µM | 0.0391 µM | 0.773 µM |  | 
15 | Nc1nc(-n2c(-c3ccccc3)nc3c(Br)cc(Br)cc3c2=O)nnc1-c1cccc(Cl)c1Cl | 15.4 µM | 56.5 µM | 8.88 µM | > 100 µM |  |  | 5.15 µM | > 100 µM | 22.3 µM | > 100 µM | 2.18 µM | 6.81 µM | 2.01 µM | 6.88 µM | 51.7 µM | > 100 µM
16 | COc1cnc2c(c1)C(=O)c1c-2n(CCCN2CCOCC2)c(=O)c2cc(F)ccc12 | 0.172 µM | 0.911 µM |  |  | 0.373 µM | 2.85 µM | 0.149 µM | > 100 µM |  |  | 0.454 µM | > 100 µM | 0.299 µM | > 100 µM | 0.352 µM | > 100 µM
17 | COc1cc2c(cc1OCCCCN1CCN(CC(=O)Nc3ccc(Cl)cc3C(=O)c3ccccc3Cl)CC1)N=CC1CCCN1C2=O (centres undefined) | 0.194 µM | 0.364 µM | 0.175 µM | 0.335 µM | 0.273 µM |  | 0.238 µM | 0.726 µM | 0.2 µM | 0.575 µM | 0.188 µM | 0.367 µM |  |  | 0.262 µM | 0.962 µM
18 | CCN(CC)CCSc1c2ccccc2nc2cc(NCC(=O)Nc3ccccc3-c3ccccc3NC(=O)CNc3ccc4c(SCCN(CC)CC)c5ccccc5nc4c3)ccc12 |  | > 100 µM |  | > 55.3 µM |  | 49.3 µM |  | > 100 µM |  | > 100 µM |  |  |  |  |  | > 100 µM
19 | C[N+](C)(C)CC(=O)N/N=C(/CC(=O)CC(C1=C(O)c2ccccc2OC1)c1ccccc1)C(=O)Nc1cccc(Cl)c1 (centres undefined) |  | > 100 µM |  | > 100 µM |  | > 100 µM |  | > 100 µM |  | > 100 µM |  |  |  | > 100 µM |  | > 100 µM
20 | C=CCO[C@H]1CO[C@H]2[C@@H]1OC[C@@H]2Oc1ccc(Nc2ccnc(Nc3ccc(O[C@H]4CO[C@H]5[C@@H]4OC[C@@H]5OCC=C)c(Cl)c3)n2)cc1Cl |  |  | 1.6 µM | 4.06 µM | 1.62 µM | 3.78 µM | 1.77 µM | 3.29 µM | 1.83 µM | 3.69 µM | 1.67 µM | 3.06 µM | 1.78 µM | 3.85 µM | 1.57 µM | 2.93 µM
21 | CO/C(=N\N=C\c1ccc(C(F)(F)F)cc1)c1ccncc1 |  |  |  | > 10 µM |  | > 10 µM |  | > 10 µM |  | > 10 µM |  | > 10 µM |  | > 10 µM |  | > 10 µM
22 | FC(F)(F)c1cccc(Nc2nc(-c3ccccc3)nc3ncccc23)c1 | 1.7 µM | 5.21 µM | 4.07 µM | 13.9 µM | 2.51 µM | 6.93 µM | 5.2 µM | 24.7 µM |  |  | 3.77 µM | 22.8 µM | 4.07 µM | 23.5 µM | 8.05 µM | 45.6 µM
23 | Nc1ccccc1S(=O)(=O)N(CC(=O)O)c1ccccc1 |  | > 100 µM |  | > 100 µM |  | > 100 µM |  | > 100 µM |  | > 100 µM |  |  |  |  |  | > 100 µM
24 | Cc1ccc2c(C)c3c(ccc4ccccc43)c[n+]2c1 | 5.85 µM | > 100 µM | 11 µM | 24.7 µM | 21.5 µM | 55.8 µM |  |  | 10.4 µM | 77.1 µM | 9.55 µM | 24.4 µM | > 100 µM | > 100 µM | 5.21 µM | 41.7 µM
25 | CC1CCc2nc[nH]c(=O)c21 (centres undefined) | > 100 µM | > 100 µM | > 100 µM | > 100 µM | > 100 µM | > 100 µM | > 100 µM | > 100 µM |  |  | > 100 µM | > 100 µM | > 100 µM | > 100 µM | > 100 µM | > 100 µM
26 | NS(=O)(=O)c1ccc2c(c1)OCCOCCOCCOCCO2 |  | > 100 µM |  | > 100 µM |  | > 100 µM |  | > 100 µM |  | > 100 µM |  | > 100 µM |  |  |  | 
27 | COc1cc2c(c3oc4c(O)cccc4c(=O)c13)CC(C(C)(O)CO)O2 (centres undefined) |  |  |  | > 100 µM |  | > 100 µM |  | > 100 µM |  | > 100 µM |  | > 100 µM |  | > 100 µM |  | 
